Data: ChEMBL document CHEMBL1201862, “PubChem BioAssay data set” (2004)
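Exposure lasted 48 hours, with cells grown in 96-well plates and compounds tested at five concentrations. GI50: concentration for 50% inhibition of growth.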 Active and inactive are the calls of the source. Rule as the data show it: active = GI50 up to about 1.1 µM and inactive = higher.

How the values were obtained:
Assay in all cases: NCI anticancer screen, dose series, 48 h
DU-145 = test system: DU-145
KM12 = test system: KM12
MDA-MB-435 = test system: MDA-MB-435
OVCAR-5 = test system: OVCAR-5
SNB-19 = test system: SNB-19
CCRF-CEM = test system: CCRF-CEM
SR = test system: SR
MDA-MB-231 = test system: MDA-MB-231
HOP-92 = test system: HOP-92
SN12C = test system: SN12C
SF-539 = test system: SF-539
NCI/ADR-RES = test system: NCI/ADR-RES
MCF7 = test system: MCF7
CAKI-1 = test system: CAKI-1
MDA-N = test system: MDA-N
BT-549 = test system: BT-549
OVCAR-8 = test system: OVCAR-8
HCT-15 = test system: HCT-15
HCC 2998 = test system: HCC 2998
TK-10 = test system: TK-10
SK-MEL-28 = test system: SK-MEL-28
HL-60 = test system: HL-60
K562 = test system: K562
UACC-257 = test system: UACC-257
UO-31 = test system: UO-31
RPMI-8226 = test system: RPMI-8226
NCI-H226 = test system: NCI-H226
A549 = test system: A549
HOP-62 = test system: HOP-62
NCI-H460 = test system: NCI-H460
PC-3 = test system: PC-3
SW-620 = test system: SW-620
786-0 = test system: 786-0
RXF 393 = test system: RXF 393
IGROV-1 = test system: IGROV-1
EKVX = test system: EKVX
A498 = test system: A498
SNB-75 = test system: SNB-75
Hs-578T = test system: Hs-578T
Malme-3M = test system: Malme-3M
NCI-H522 = test system: NCI-H522
LOX IMVI = test system: LOX IMVI
SF-268 = test system: SF-268
U-251 = test system: U-251
COLO 205 = test system: COLO 205
NCI-H23 = test system: NCI-H23
SF-295 = test system: SF-295
ACHN = test system: ACHN
MOLT-4 = test system: MOLT-4
HT-29 = test system: HT-29
OVCAR-3 = test system: OVCAR-3
HCT-116 = test system: HCT-116
OVCAR-4 = test system: OVCAR-4
SK-MEL-5 = test system: SK-MEL-5
UACC-62 = test system: UACC-62
SK-OV-3 = test system: SK-OV-3
SK-MEL-2 = test system: SK-MEL-2
M14 = test system: M14
T47D = test system: T47D

With `Nc1nc(Cl)c(CO)c(NCC2(CO)CCC2)n1` the GI50 (DU-145) was > 100 µM (inactive), the GI50 (KM12) was 75.7 µM (inactive) and the GI50 (MDA-MB-435) was > 100 µM (inactive). The GI50 (OVCAR-5) was > 100 µM (inactive), the GI50 (SNB-19) was 94.2 µM (inactive) and the GI50 (CCRF-CEM) was > 100 µM (inactive). The GI50 (SR) was > 100 µM (inactive), the GI50 (MDA-MB-231) was > 100 µM (inactive) and the GI50 (HOP-92) was > 100 µM (inactive). For the same molecule, the GI50 (SN12C) was > 100 µM (inactive), the GI50 (SF-539) was > 100 µM (inactive) and the GI50 (NCI/ADR-RES) was > 100 µM (inactive). For the same molecule, the GI50 (MCF7) was > 100 µM (inactive), the GI50 (CAKI-1) was > 100 µM (inactive) and the GI50 (MDA-N) was > 100 µM (inactive). For the same molecule, the GI50 (BT-549) was > 100 µM (inactive), the GI50 (OVCAR-8) was > 100 µM (inactive) and the GI50 (HCT-15) was over 100 µM. For the same molecule, the GI50 (HCC 2998) was > 100 µM (inactive), the GI50 (TK-10) was > 100 µM (inactive) and the GI50 (SK-MEL-28) was > 100 µM (inactive). For the same molecule, the GI50 (HL-60) was > 100 µM (inactive), the GI50 (K562) was > 100 µM (inactive) and the GI50 (UACC-257) was > 100 µM (inactive). For the same molecule, the GI50 (UO-31) was > 100 µM (inactive), the GI50 (RPMI-8226) was > 100 µM (inactive) and the GI50 (NCI-H226) was > 100 µM (inactive). The GI50 (A549) was > 100 µM (inactive), the GI50 (HOP-62) was > 100 µM (inactive) and the GI50 (NCI-H460) was > 100 µM (inactive). The GI50 (PC-3) was 88.7 µM (inactive), the GI50 (SW-620) was > 100 µM (inactive) and the GI50 (786-0) was > 100 µM (inactive). The GI50 (RXF 393) was > 100 µM (inactive), the GI50 (IGROV-1) was > 100 µM (inactive) and the GI50 (EKVX) was > 100 µM (inactive). The GI50 (A498) was > 100 µM (inactive), the GI50 (SNB-75) was > 100 µM (inactive) and the GI50 (Hs-578T) was > 100 µM (inactive). For the same molecule, the GI50 (Malme-3M) was > 100 µM (inactive), the GI50 (NCI-H522) was > 100 µM (inactive) and the GI50 (LOX IMVI) was > 100 µM (inactive). The GI50 (SF-268) was > 100 µM (inactive), the GI50 (U-251) was > 100 µM (inactive) and the GI50 (COLO 205) was > 100 µM (inactive). The GI50 (NCI-H23) was 41.9 µM (inactive), the GI50 (SF-295) was > 100 µM (inactive) and the GI50 (ACHN) was > 100 µM (inactive). The GI50 (MOLT-4) was > 100 µM (inactive), the GI50 (HT-29) was > 100 µM (inactive) and the GI50 (OVCAR-3) was > 100 µM (inactive). For the same molecule, the GI50 (HCT-116) was > 100 µM (inactive), the GI50 (OVCAR-4) was > 100 µM (inactive) and the GI50 (SK-MEL-5) was > 100 µM (inactive).
`COC(=O)C1=C(O)C(C(=O)OC)[C@@]2(O)[C@@H](C(=O)OC)CC[C@@H]1[C@@H]2C(=O)OC` (some centres not stated) was tested, and the GI50 (DU-145) was 44.7 µM (inactive), the GI50 (KM12) was 21.6 µM (inactive) and the GI50 (MDA-MB-435) was 18.2 µM (inactive). For the same molecule, the GI50 (OVCAR-5) was 28.2 µM (inactive), the GI50 (SNB-19) was 43.4 µM (inactive) and the GI50 (UACC-62) was 30 µM (inactive). The GI50 (CCRF-CEM) was 25.2 µM (inactive), the GI50 (SR) was 14.9 µM (inactive) and the GI50 (MDA-MB-231) was 25.1 µM (inactive). The GI50 (SN12C) was 25.4 µM (inactive), the GI50 (SF-539) was 18.6 µM (inactive) and the GI50 (MCF7) was 35.6 µM (inactive). The GI50 (BT-549) was 25.5 µM (inactive), the GI50 (HCT-15) was 20.6 µM and the GI50 (HCC 2998) was 16.4 µM (inactive). The GI50 (TK-10) was 23 µM (inactive), the GI50 (SK-MEL-28) was 27.9 µM (inactive) and the GI50 (SK-OV-3) was 19.2 µM (inactive). The GI50 (SK-MEL-2) was 16 µM (inactive), the GI50 (HL-60) was 23.3 µM (inactive) and the GI50 (K562) was 25.4 µM (inactive). The GI50 (UACC-257) was 27.4 µM (inactive), the GI50 (UO-31) was 29.2 µM (inactive) and the GI50 (RPMI-8226) was 27.2 µM (inactive). For the same molecule, the GI50 (NCI-H226) was 20.1 µM (inactive), the GI50 (HOP-62) was 23.8 µM (inactive) and the GI50 (NCI-H460) was 16.1 µM (inactive). For the same molecule, the GI50 (RXF 393) was 12.2 µM (inactive), the GI50 (EKVX) was 23 µM (inactive) and the GI50 (M14) was 22.6 µM (inactive). For the same molecule, the GI50 (A498) was 16.5 µM (inactive), the GI50 (SNB-75) was 17.9 µM (inactive) and the GI50 (Hs-578T) was 11.1 µM (inactive). For the same molecule, the GI50 (Malme-3M) was 21.5 µM (inactive), the GI50 (NCI-H522) was 10.6 µM (inactive) and the GI50 (LOX IMVI) was 21.3 µM (inactive). The GI50 (SF-268) was 29.4 µM (inactive), the GI50 (U-251) was 22.3 µM (inactive) and the GI50 (NCI-H23) was 17.8 µM (inactive). For the same molecule, the GI50 (ACHN) was 39.2 µM (inactive), the GI50 (MOLT-4) was 29.4 µM (inactive) and the GI50 (T47D) was 54.2 µM (inactive). The GI50 (HT-29) was > 100 µM (inactive), the GI50 (OVCAR-3) was 21.3 µM (inactive) and the GI50 (HCT-116) was 30.4 µM (inactive).
In the case of `CSc1nc(-c2ccccc2)[nH]c(=O)n1`, the GI50 (DU-145) is reported as > 100 µM (inactive), the GI50 (KM12) is reported as > 100 µM (inactive) and the GI50 (MDA-MB-435) is reported as > 100 µM (inactive). For the same molecule, the GI50 (OVCAR-5) was > 100 µM (inactive), the GI50 (SNB-19) was > 100 µM (inactive) and the GI50 (UACC-62) was > 100 µM (inactive). The GI50 (CCRF-CEM) was > 100 µM (inactive), the GI50 (MDA-MB-231) was > 100 µM (inactive) and the GI50 (HOP-92) was > 100 µM (inactive). For the same molecule, the GI50 (SN12C) was > 100 µM (inactive), the GI50 (SF-539) was > 100 µM (inactive) and the GI50 (NCI/ADR-RES) was > 100 µM (inactive). For the same molecule, the GI50 (MCF7) was > 100 µM (inactive), the GI50 (CAKI-1) was > 100 µM (inactive) and the GI50 (BT-549) was > 100 µM (inactive). For the same molecule, the GI50 (OVCAR-8) was > 100 µM (inactive), the GI50 (HCT-15) was over 100 µM and the GI50 (HCC 2998) was > 100 µM (inactive). For the same molecule, the GI50 (TK-10) was > 100 µM (inactive), the GI50 (SK-MEL-28) was > 100 µM (inactive) and the GI50 (SK-OV-3) was > 100 µM (inactive). The GI50 (SK-MEL-2) was > 100 µM (inactive), the GI50 (HL-60) was 54.5 µM (inactive) and the GI50 (UACC-257) was > 100 µM (inactive). The GI50 (UO-31) was > 100 µM (inactive), the GI50 (RPMI-8226) was > 100 µM (inactive) and the GI50 (NCI-H226) was > 100 µM (inactive). For the same molecule, the GI50 (A549) was > 100 µM (inactive), the GI50 (HOP-62) was > 100 µM (inactive) and the GI50 (PC-3) was > 100 µM (inactive). The GI50 (SW-620) was > 100 µM (inactive), the GI50 (786-0) was > 100 µM (inactive) and the GI50 (RXF 393) was > 100 µM (inactive). For the same molecule, the GI50 (IGROV-1) was > 100 µM (inactive), the GI50 (EKVX) was > 100 µM (inactive) and the GI50 (M14) was > 100 µM (inactive). For the same molecule, the GI50 (A498) was > 100 µM (inactive), the GI50 (Hs-578T) was > 100 µM (inactive) and the GI50 (Malme-3M) was 59 µM (inactive). The GI50 (NCI-H522) was > 100 µM (inactive), the GI50 (SF-268) was > 100 µM (inactive) and the GI50 (U-251) was > 100 µM (inactive). For the same molecule, the GI50 (COLO 205) was > 100 µM (inactive), the GI50 (NCI-H23) was > 100 µM (inactive) and the GI50 (SF-295) was > 100 µM (inactive). For the same molecule, the GI50 (ACHN) was > 100 µM (inactive), the GI50 (MOLT-4) was > 100 µM (inactive) and the GI50 (T47D) was > 100 µM (inactive). For the same molecule, the GI50 (HT-29) was > 100 µM (inactive), the GI50 (OVCAR-3) was > 100 µM (inactive) and the GI50 (HCT-116) was > 100 µM (inactive). The GI50 (OVCAR-4) was > 100 µM (inactive) and the GI50 (SK-MEL-5) was > 100 µM (inactive).
